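96-well plates; 48 h exposure; 5 concentrations. Endpoints by linear interpolation between flanking doses. Not reached: highest tested concentration assigned. The concentration for 50% growth inhibition is given as GI50.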 The source made the active and inactive calls. No stated cut-off is given here; in the data, active = GI50 up to about 1.1 µM and inactive = higher.
What was measured:
Assay in all cases: inhibition of tumour cell growth, NCI panel, 48 h
SK-MEL-2 = test system: SK-MEL-2
NCI-H23 = test system: NCI-H23
RPMI-8226 = test system: RPMI-8226
SNB-19 = test system: SNB-19
U-251 = test system: U-251
OVCAR-8 = test system: OVCAR-8
NCI-H460 = test system: NCI-H460
SN12C = test system: SN12C
HT-29 = test system: HT-29
HCT-15 = test system: HCT-15
M14 = test system: M14
A498 = test system: A498
HOP-62 = test system: HOP-62
T47D = test system: T47D
OVCAR-4 = test system: OVCAR-4
SF-295 = test system: SF-295
PC-3 = test system: PC-3
NCI-H522 = test system: NCI-H522

SMILES	GI50 (SK-MEL-2)	GI50 (NCI-H23)	GI50 (RPMI-8226)	GI50 (SNB-19)	GI50 (U-251)	GI50 (OVCAR-8)	GI50 (NCI-H460)	GI50 (SN12C)	GI50 (HT-29)	GI50 (HCT-15) [µM]	GI50 (M14)	GI50 (A498)	GI50 (HOP-62)	GI50 (T47D)	GI50 (OVCAR-4)	GI50 (SF-295)	GI50 (PC-3)	GI50 (NCI-H522)
Oc1cc(/C=C/c2ccccc2)nc2cc3c(cc12)OCO3	3.72 µM (inactive)	3.26 µM (inactive)	0.724 µM (active)	3.78 µM (inactive)	2.52 µM (inactive)	5.53 µM (inactive)	3.1 µM (inactive)	6.04 µM (inactive)	2.2 µM (inactive)	3.01	5.25 µM (inactive)	4.2 µM (inactive)	3.47 µM (inactive)	3.28 µM (inactive)	14.7 µM (inactive)			
CCOC(=O)c1c(SCCN2CCCCC2)n(-c2ccccc2)c(=S)n(-c2ccccc2)c1=O	> 100 µM (inactive)	16.9 µM (inactive)	2.74 µM (inactive)	> 78.3 µM (inactive)	28.6 µM (inactive)	22.9 µM (inactive)	33.9 µM (inactive)	19.2 µM (inactive)	15.3 µM (inactive)	4.29	28.6 µM (inactive)		14 µM (inactive)	4.6 µM (inactive)	17.6 µM (inactive)	> 100 µM (inactive)	14.6 µM (inactive)	16.7 µM (inactive)
CC1CNC(NS(=O)(=O)c2cc(C(=O)Nc3ccccc3)c(Cl)cc2S)=NN1 (stereo unspecified)	22.2 µM (inactive)	44.1 µM (inactive)	31.4 µM (inactive)	57 µM (inactive)	39.1 µM (inactive)	30.8 µM (inactive)	63 µM (inactive)	> 100 µM (inactive)	38.8 µM (inactive)	33.8	26.4 µM (inactive)	17.7 µM (inactive)	43.9 µM (inactive)		67.3 µM (inactive)	38.5 µM (inactive)	29 µM (inactive)	23.4 µM (inactive)
C[n+]1ccc2/c(=C\C#N)c3ccccc3n21	30.8 µM (inactive)	11.4 µM (inactive)	11.8 µM (inactive)	4.27 µM (inactive)	12.9 µM (inactive)	36.6 µM (inactive)	31 µM (inactive)	27.9 µM (inactive)	22.9 µM (inactive)	> 100	48.2 µM (inactive)		30.7 µM (inactive)	5.65 µM (inactive)	21.1 µM (inactive)	33.7 µM (inactive)	25.9 µM (inactive)	24.5 µM (inactive)
COC(=S)OC1CC(n2cnc3c(=O)[nH]cnc32)OC1CO[Si](C)(C)C(C)(C)C (stereo unspecified)	> 100 µM (inactive)	> 100 µM (inactive)	> 100 µM (inactive)	> 100 µM (inactive)	> 100 µM (inactive)	> 100 µM (inactive)	> 100 µM (inactive)	> 100 µM (inactive)	> 100 µM (inactive)	> 100	> 100 µM (inactive)	> 100 µM (inactive)	> 100 µM (inactive)		> 100 µM (inactive)	> 100 µM (inactive)	> 100 µM (inactive)	> 100 µM (inactive)
O=C(Cc1ccccc1)NNc1nc(NNC(=O)c2ccncc2)nc(Nc2cccc(Cl)c2)n1		> 10 µM (inactive)	> 10 µM (inactive)		> 10 µM (inactive)	> 10 µM (inactive)	> 10 µM (inactive)	> 10 µM (inactive)	> 10 µM (inactive)	> 10	> 10 µM (inactive)		> 10 µM (inactive)	> 10 µM (inactive)	> 10 µM (inactive)			
CC1=C(c2ccccc2)CON(c2ccccc2)C1	26.6 µM (inactive)	51.5 µM (inactive)	28.4 µM (inactive)	39.4 µM (inactive)	25.8 µM (inactive)	33.5 µM (inactive)	35 µM (inactive)	53.6 µM (inactive)	36.9 µM (inactive)	28.4	33.4 µM (inactive)		66.2 µM (inactive)		> 100 µM (inactive)	30.6 µM (inactive)		15.2 µM (inactive)
CC(C)CC1NC(=O)CCC(NC(=O)C(Cc2ccc(O)cc2)NC(=O)OCc2ccccc2)C(=O)NC(Cc2ccccc2)C(=O)NC(Cc2ccccc2)NC1=O (stereo unspecified)	> 100 µM (inactive)	> 100 µM (inactive)	> 100 µM (inactive)	56.6 µM (inactive)	> 100 µM (inactive)	> 100 µM (inactive)	> 100 µM (inactive)	> 100 µM (inactive)	> 100 µM (inactive)	> 100	> 100 µM (inactive)		> 100 µM (inactive)	> 100 µM (inactive)	> 100 µM (inactive)	> 100 µM (inactive)	> 100 µM (inactive)	

From ChEMBL document CHEMBL1201862, “PubChem BioAssay data set” (2004)
